Key:
Aspergillus fumigatus = assay: Antibacterial test to Aspergillus fumigatus (96-hole plate, IC80); type: cell-based; settings: YNB culture with 0.22% low melting point-agarose, 1×10^4 cell/ml, 25° C., 72 hours, absorbance at 620 nm
Procedure: (Antibacterial Test to Aspergillus fumigatus)
In the test example, a test was performed on the antibacterial of the compounds according to the present invention to Aspergillus fumigatus in the method later described.
Aspergillus fumigatus was cultivated in Sabouraud's agar at 37° C. for 3 days, after the spores to be used for the test were formed, the spore suspension was prepared. The spore suspension was suspended in YNB culture to which a 0.22% low melting point-agarose was added so as to allow the final concentration to be 1×10^4 cell/ml, and the solution was poured into each hole on a 96-hole flat-bottomed plate. Next, the dilution trains using each of the compounds according to the present invention were added, the solution was cultivated at 25° C. for 72 hours, and the propagation rate of the mold was evaluated by measuring the absorbance at 620 nm. With such a test, the propagation rate of the mold in the chemical-free test area was compared with this case to find the concentration of the compound where the propagation rate of the mold is suppressed by 80% as IC 80 (80% growth inhibition concentration).

Candida albicans = assay: Antibacterial test to Candida albicans (96-hole plate, IC80); type: cell-based; settings: cultivated at 35° C. for 72 hours, absorbance at 540 nm
Procedure: (Antibacterial Test to Candida albicans) In the test examples, a test was performed on the antibacterial of the compounds according to the present invention to Candida albicans in the methods later described. The culture dilution train containing each compound was prepared by using a 96-hole flat-bottomed plate, and the inoculation mold solution controlled at 1 to 5×10^3 cell/ml beforehand of 10 μl was added to each hole on the plate. After the inoculation, the molds were cultivated at 35° C. for 72 hours, and the propagation of the mold was evaluated by measuring the absorbance at 540 nm. With such a test, the propagation of the mold in this case was compared with the propagation of the mold in the chemical-free test area to find the concentration of a compound where the propagation rate of the mold is suppressed by 80% as IC 80 (80% growth inhibition concentration).

CC(C)(CNCc1ccncn1)Cc1ccc(C(C)(C)C)cc1 [Compound I-10]
80% Growth Inhibition Concentration (IC80) (Aspergillus fumigatus): 38 µg/mL | 80% Growth Inhibition Concentration (IC80) (Candida albicans): 75 µg/mL
